Experimental data taken from US20180249713A1, “Composition for Protection of Plants, Fruit and Vegetables” (priority 2015, published 2018).
Where two headings read alike, the source gives them in different places.

Tests used:
Fusarium [1] = assay: Effect on Fusarium (Spore Growth) in vitro study; assay type: cell-based, Fusarium culmorum
Experimental: (§1) Sensitivity towards Tebuconazole (control) and Biocides A and B (see tables 1A and 1B) respectively, was tested in petri dishes using spore suspension containing 2.5×10^4 spores/ml of each fungal isolate or a mycelium block. 5-6 different concentrations of Biocide A and B respectively, as outlined in table 3 below were used in the tests.
(§2) For the tests, the two biocides A and B where individually mixed with potato dextrose broth to achieve the appropriate test concentration. Percent inhibition was assessed after a few days depending on the fungi and its growth rates measured in relation to control.

Fusarium [2] = assay: Effect on Fusarium (Mycelie Growth) in vitro study; assay type: cell-based, Fusarium culmorum
Experimental: as §1, §2

[3] = test system: Puccinia striiformis f. sp. tritici (Pst); assay: Indoor greenhouse study, stripe (yellow) rust, preventive and curative; assay type: in vivo; settings: preventive spray one day prior to infection, curative three days later; 30, 100, 300, 1000 ppm; evaluated 16 days later
Description: In this study we used tebuconazole as fungicidal reference (control) and the above outlined biocide A and B compositions for testing the effect on Stripe (yellow) rust, caused by Puccinia striiformis f. sp. tritici (Pst). The applied method also tests preventive and curative effects of the elected fungicide compositions.
The scale used is 0=no attack;
1=necrose with a few pustules; 5=half of the infected leafs are attacked by pustules; 10=100% attack of the leafs.
The leafs were sprayed preventive one day prior to infection with Stripe (yellow) rust. Three days later the plants were sprayed for curative purposes.
16 days later the plant were evaluated.
The following doses were used for both preventive and curative experiments: 30, 100, 300, 1000 ppm

In the case of `CC(C)(C)C(O)(CCc1ccc(Cl)cc1)Cn1cncn1` (stereo not shown) [Tebuconazole], the Growth (Fusarium [1]; 0.1 ppm) is reported as 25%, the Growth (Fusarium [1]; 1 ppm) is reported as 0% and the Growth (Fusarium [1]; 3.3 ppm) is reported as 0%. For the same compound, the Growth (Fusarium [1]; 10 ppm) was 0%, the Growth (Fusarium [1]; 33 ppm) was 0% and the Growth (Fusarium [1]; 100 ppm) was 0%. It also gave a Growth (Fusarium [2]; 0.1 ppm) of 10%, a Growth (Fusarium [2]; 1 ppm) of 10% and a Growth (Fusarium [2]; 3.3 ppm) of 0%. It also gave a Growth (Fusarium [2]; 10 ppm) of 0%, a Growth (Fusarium [2]; 33 ppm) of 0% and a Growth (Fusarium [2]; 100 ppm) of 0%. For the same compound, the “effect on Stripe (yellow) rust attack” value [3] was “able to eliminate the fungi attack both in a preventive and a curative manner”, the Growth (Septoria tritici; 0.1 ppm) was 10% and the Growth (Septoria tritici; 1 ppm) was 5%. It also gave a Growth (Septoria tritici; 3.3 ppm) of 0%, a Growth (Septoria tritici; 10 ppm) of 0% and a Growth (Septoria tritici; 33 ppm) of 0%. For the same compound, the Growth (Septoria tritici; 100 ppm) was 0%.
